In ChEMBL document CHEMBL1128824 (Bioorg Med Chem Lett, 1995):
pIC50: −log10 of the molar value.

Experiments:
[1] = species: Homo sapiens; assay: Compound was tested for inhibition of phorbol-induced superoxide generation in human neutrophils using neutrophil assay; type: functional
[2] = biological target: T1, Protein kinase C beta type (Homo sapiens, UniProt P05771); assay: Inhibition of Protein kinase C beta 2 expressed in Sf-9 cells
[3] = biological target: T2, Protein kinase C delta type (Homo sapiens, UniProt Q05655); assay: Inhibition of Protein kinase C delta expressed in Sf-9 cells
T2 sequence (Q05655 whole entry): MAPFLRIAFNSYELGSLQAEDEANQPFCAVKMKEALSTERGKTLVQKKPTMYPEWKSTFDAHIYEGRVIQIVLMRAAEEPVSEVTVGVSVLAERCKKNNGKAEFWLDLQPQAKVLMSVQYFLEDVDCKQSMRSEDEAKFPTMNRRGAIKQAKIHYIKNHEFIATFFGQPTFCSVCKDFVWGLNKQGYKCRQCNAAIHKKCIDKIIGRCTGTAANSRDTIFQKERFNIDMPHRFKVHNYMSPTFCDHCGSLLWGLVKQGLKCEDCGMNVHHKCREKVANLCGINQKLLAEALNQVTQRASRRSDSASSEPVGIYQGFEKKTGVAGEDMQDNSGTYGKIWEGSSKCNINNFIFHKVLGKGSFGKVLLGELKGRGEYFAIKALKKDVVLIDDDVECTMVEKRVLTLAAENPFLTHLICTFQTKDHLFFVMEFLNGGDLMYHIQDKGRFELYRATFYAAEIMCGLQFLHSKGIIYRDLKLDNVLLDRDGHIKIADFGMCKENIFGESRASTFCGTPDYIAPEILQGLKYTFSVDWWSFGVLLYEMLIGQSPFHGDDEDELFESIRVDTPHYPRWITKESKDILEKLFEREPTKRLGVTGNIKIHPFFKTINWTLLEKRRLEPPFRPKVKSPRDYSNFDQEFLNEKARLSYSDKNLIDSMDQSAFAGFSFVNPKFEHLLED

[4] = biological target: T3, Protein kinase C alpha type (Homo sapiens, UniProt P17252); assay: Inhibition of Protein kinase C alpha expressed in Sf-9 cells
[5] = biological target: T4, Protein kinase C epsilon type (Homo sapiens, UniProt Q02156); assay: Inhibition of protein kinase C epsilon expressed in Sf-9 cells
T4 sequence (Q02156 whole entry): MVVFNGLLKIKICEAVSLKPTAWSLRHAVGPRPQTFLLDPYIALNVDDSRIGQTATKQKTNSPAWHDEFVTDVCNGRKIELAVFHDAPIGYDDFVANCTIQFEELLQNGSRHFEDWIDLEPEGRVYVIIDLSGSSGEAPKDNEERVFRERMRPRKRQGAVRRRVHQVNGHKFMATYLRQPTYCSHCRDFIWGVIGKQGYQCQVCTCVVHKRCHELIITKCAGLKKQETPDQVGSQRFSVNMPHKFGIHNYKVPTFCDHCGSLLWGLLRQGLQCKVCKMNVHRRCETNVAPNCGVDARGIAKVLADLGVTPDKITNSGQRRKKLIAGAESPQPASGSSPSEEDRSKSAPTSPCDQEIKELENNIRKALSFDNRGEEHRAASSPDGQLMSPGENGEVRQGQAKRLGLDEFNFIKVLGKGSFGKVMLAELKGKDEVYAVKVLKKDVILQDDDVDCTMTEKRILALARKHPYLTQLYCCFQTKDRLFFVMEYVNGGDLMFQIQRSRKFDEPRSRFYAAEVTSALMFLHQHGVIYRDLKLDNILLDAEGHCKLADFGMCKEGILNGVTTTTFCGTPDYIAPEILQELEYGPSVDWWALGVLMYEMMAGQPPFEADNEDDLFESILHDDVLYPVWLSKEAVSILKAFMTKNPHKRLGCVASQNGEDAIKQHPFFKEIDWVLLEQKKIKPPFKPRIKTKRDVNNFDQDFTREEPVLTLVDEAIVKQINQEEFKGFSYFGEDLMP

[6] = biological target: T5, Protein kinase C eta type (Homo sapiens, UniProt P24723); assay: Inhibition of Protein kinase C eta expressed in Sf-9 cells
T5 sequence (P24723 whole entry): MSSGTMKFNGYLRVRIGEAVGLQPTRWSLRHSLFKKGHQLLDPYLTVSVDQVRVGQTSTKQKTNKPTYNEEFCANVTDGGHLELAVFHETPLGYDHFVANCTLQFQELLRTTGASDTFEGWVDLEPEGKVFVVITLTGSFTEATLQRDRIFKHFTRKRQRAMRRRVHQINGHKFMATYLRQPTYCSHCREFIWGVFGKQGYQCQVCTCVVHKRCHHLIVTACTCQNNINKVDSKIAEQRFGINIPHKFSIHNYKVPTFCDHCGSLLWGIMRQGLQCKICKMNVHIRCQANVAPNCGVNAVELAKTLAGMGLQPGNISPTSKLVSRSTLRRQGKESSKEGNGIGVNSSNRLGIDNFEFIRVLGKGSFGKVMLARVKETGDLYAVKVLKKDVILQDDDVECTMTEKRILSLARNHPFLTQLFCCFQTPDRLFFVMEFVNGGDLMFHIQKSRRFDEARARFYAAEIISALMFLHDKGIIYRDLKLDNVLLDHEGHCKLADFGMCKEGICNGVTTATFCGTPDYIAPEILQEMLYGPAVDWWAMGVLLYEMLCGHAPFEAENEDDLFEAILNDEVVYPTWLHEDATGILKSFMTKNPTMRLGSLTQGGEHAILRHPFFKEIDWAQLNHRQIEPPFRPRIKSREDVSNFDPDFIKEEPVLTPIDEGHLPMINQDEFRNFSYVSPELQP

[7] = species: Homo sapiens; assay: Compound was tested for inhibition of phorbol-induced superoxide generation in human neutrophils after 1 hr pre-incubation at 4 degree C using neutrophil assay; value ranges from 2.8-10; type: functional
[8] = species: Homo sapiens; assay: Compound was tested for inhibition of phorbol-induced superoxide generation in human neutrophils after 1 hr pre-incubation at 4 degree C using neutrophil assay; type: functional
[9] = species: Homo sapiens; assay: Compound was tested for inhibition of phorbol-induced superoxide generation in human neutrophils using neutrophil assay; value ranges from […]-[…]; type: functional
[10] = species: Homo sapiens; assay: Compound was tested for inhibition of phorbol-induced superoxide generation in human neutrophils after 1 hr pre-incubation at 4 degree C using neutrophil assay; value ranges from 0.33-0.85; type: functional
[11] = biological target: T1, Protein kinase C beta type; assay: Inhibition of Protein kinase C beta 2 expressed in Sf-9 cells (inactive)
[12] = biological target: T3, Protein kinase C alpha type; assay: Inhibition of Protein kinase C alpha expressed in Sf-9 cells (inactive)
[13] = biological target: T4, Protein kinase C epsilon type; assay: Inhibition of protein kinase C epsilon expressed in Sf-9 cells (inactive)
[14] = biological target: T2, Protein kinase C delta type; assay: Inhibition of Protein kinase C delta expressed in Sf-9 cells (inactive)
[15] = biological target: T5, Protein kinase C eta type; assay: Inhibition of Protein kinase C eta expressed in Sf-9 cells (inactive)
[16] = species: Homo sapiens; assay: Compound was tested for inhibition of phorbol-induced superoxide generation in human neutrophils using neutrophil assay; value ranges from 0.8-2.1; type: functional
[17] = species: Homo sapiens; assay: cells; type: functional, organism-based

T1 sequence (P05771 whole entry): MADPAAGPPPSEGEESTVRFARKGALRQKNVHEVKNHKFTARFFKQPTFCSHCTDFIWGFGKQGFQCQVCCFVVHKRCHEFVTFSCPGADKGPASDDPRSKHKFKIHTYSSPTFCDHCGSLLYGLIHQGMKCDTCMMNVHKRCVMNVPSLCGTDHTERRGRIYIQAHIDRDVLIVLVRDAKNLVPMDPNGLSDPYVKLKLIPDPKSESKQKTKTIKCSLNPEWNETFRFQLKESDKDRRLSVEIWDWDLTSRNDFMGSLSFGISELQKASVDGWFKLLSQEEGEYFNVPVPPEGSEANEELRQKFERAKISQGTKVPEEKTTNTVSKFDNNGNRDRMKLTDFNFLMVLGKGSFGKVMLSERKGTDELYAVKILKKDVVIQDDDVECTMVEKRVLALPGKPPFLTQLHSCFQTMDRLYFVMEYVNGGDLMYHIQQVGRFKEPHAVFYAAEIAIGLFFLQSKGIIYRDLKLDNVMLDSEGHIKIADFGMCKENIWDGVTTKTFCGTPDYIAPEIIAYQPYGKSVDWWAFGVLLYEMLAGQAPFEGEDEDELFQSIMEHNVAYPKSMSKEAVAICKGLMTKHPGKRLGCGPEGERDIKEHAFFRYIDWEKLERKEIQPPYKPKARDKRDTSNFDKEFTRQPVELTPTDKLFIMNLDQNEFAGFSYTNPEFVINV

Row | pIC50 ([1]; Homo sapiens) | pIC50 [2] | pIC50 [3] | pIC50 [4] | pIC50 [5] | pIC50 [6] | Structure (SMILES) | further results
1 | < 5.00 | 4.66 | 6.51 | 4.77 | 4.60 | 7.30 | O=C(N[C@@H]1CNC[C@H]1OC(=O)c1cc(O)c(C(=O)c2c(O)cccc2C(=O)OCC2CCCCC2)c(O)c1)c1ccc(O)cc1 | –
2 | – | 7.70 | 8.00 | 6.80 | 7.47 | 8.40 | CC(C)(C)C(=O)OCOC(=O)c1cccc(O)c1C(=O)c1c(O)cc(C(=O)O[C@@H]2CNC[C@H]2NC(=O)c2ccc(O)cc2)cc1O | pIC50 [7]: < 5.55
3 | < 4.30 | 6.54 | 7.74 | 6.60 | 6.77 | 7.80 | COC(=O)c1cccc(O)c1C(=O)c1c(O)cc(C(=O)O[C@@H]2CNC[C@H]2NC(=O)c2ccc(O)cc2)cc1O | –
4 | < 5.00 | 6.00 | 7.30 | 5.66 | 5.89 | 7.70 | CCOC(=O)c1cccc(O)c1C(=O)c1c(O)cc(C(=O)O[C@@H]2CNC[C@H]2NC(=O)c2ccc(O)cc2)cc1O | –
5 | < 5.00 | 6.36 | 7.30 | 5.33 | 4.89 | 6.59 | CC(C)OC(=O)c1cccc(O)c1C(=O)c1c(O)cc(C(=O)O[C@@H]2CCC[C@H]2NC(=O)c2ccc(O)cc2)cc1O | –
6 | – | – | – | – | – | – | O=C(N[C@@H]1CCC[C@H]1OC(=O)c1cc(O)c(C(=O)c2c(O)cccc2C(=O)O)c(O)c1)c1ccc(O)cc1 | pIC50 [8]: < 5.00
7 | < 4.30 | – | – | – | – | – | O=C(N[C@@H]1CNC[C@H]1OC(=O)c1cc(O)c(C(=O)c2c(O)cccc2C(=O)O)c(O)c1)c1ccc(O)cc1 | –
8 | < 5.59 | 5.80 | 7.17 | 6.04 | 6.18 | 7.28 | CCOC(=O)c1cccc(O)c1C(=O)c1c(O)cc(C(=O)O[C@@H]2CCC[C@H]2NC(=O)c2ccc(O)cc2)cc1O | –
9 | < 5.00 | 5.66 | 7.10 | 5.51 | 5.43 | 7.40 | CCCCOC(=O)c1cccc(O)c1C(=O)c1c(O)cc(C(=O)O[C@@H]2CNC[C@H]2NC(=O)c2ccc(O)cc2)cc1O | –
10 | – | 7.70 | 7.62 | 6.89 | 6.89 | 7.85 | CC(=O)OCOC(=O)c1cccc(O)c1C(=O)c1c(O)cc(C(=O)O[C@@H]2CNC[C@H]2NC(=O)c2ccc(O)cc2)cc1O | pIC50 [8]: < 5.00
11 | – | – | – | – | – | – | CC(C)(C)C(=O)OCOC(=O)c1cccc(O)c1C(=O)c1c(O)cc(C(=O)O[C@@H]2CCC[C@H]2NC(=O)c2ccc(O)cc2)cc1O | pIC50 [9]: < 5.43; pIC50 [10]: < 6.48; IC50 [11]: Not Active; IC50 [12]: Not Active; IC50 [13]: Not Active; IC50 [14]: Not Active; IC50 [15]: Not Active
12 | < 5.00 | 4.70 | 6.70 | 4.72 | 5.49 | 7.30 | CC(C)COC(=O)c1cccc(O)c1C(=O)c1c(O)cc(C(=O)O[C@@H]2CNC[C@H]2NC(=O)c2ccc(O)cc2)cc1O | –
13 | – | 6.48 | 7.52 | 6.49 | 6.59 | 7.52 | COC(=O)c1cccc(O)c1C(=O)c1c(O)cc(C(=O)O[C@@H]2CCC[C@H]2NC(=O)c2ccc(O)cc2)cc1O (racemic) | pIC50 [16]: < 6.10; pIC50 [17]: < 5.76
14 | – | 5.74 | 6.60 | 5.38 | 4.70 | 6.40 | COC(=O)c1cccc(O)c1C(=O)c1c(O)cc(C(=O)O[C@@H]2CCC[C@H]2NC(=O)c2ccc(O)cc2)cc1O (stereo in doubt; 8 (+)) | pIC50 [1]: < 5.00
15 | – | 7.40 | 8.30 | 6.68 | 6.52 | 8.40 | COC(=O)c1cccc(O)c1C(=O)c1c(O)cc(C(=O)O[C@@H]2CCC[C@H]2NC(=O)c2ccc(O)cc2)cc1O (stereo in doubt; 8 (-)) | pIC50 [1]: < 5.82
16 | < 5.00 | – | – | – | – | – | O=C(N[C@@H]1CNCCC[C@H]1OC(=O)c1cc(O)c(C(=O)c2c(O)cccc2C(=O)O)c(O)c1)c1ccc(O)cc1 [BALANOL] | –
